Experimental data from patent US9155743B2, “Bicyclic heterocycle compounds and their uses in therapy” (priority 2011, dated 2015).
Structures can show the parent of a compound that is named as a salt. Where two headings read alike, the source gives them in different places.

Experiments:
cIAP-1 BIR3 domain = cIAP-1 BIR3 domain (Homo sapiens (Human), UniProt Q13490); assay: cIAP-1 in vitro competitive displacement binding assay (fluorescence polarization); settings: read-out: IC50 or PI cIAP1
XIAP BIR3 domain = XIAP BIR3 domain (Homo sapiens (Human), UniProt P98170); assay: XIAP in vitro competitive displacement binding assay (fluorescence polarization); settings: given as ranges; a range also covers PI >= approx 50% at <= the upper concentration; read-out: IC50 or PI Xiap
[1] = AbuRPFK(5&6FAM)-amide probe (Probe B), given as ranges
[2] = AVPIK(5&6FAM)-amide probe (Probe A), given as ranges

| SMILES | IC50 (cIAP-1 BIR3 domain; [1]) [nM] | further results |
| --- | --- | --- |
| CN[C@@H](C)C(=O)Nc1ccc2[nH]c(=O)n(Cc3ccccc3)c2n1 (stereo in doubt) [Example 43, N-(3-Benzyl-2-oxo-2,3-dihydro-1H-imidazo[4,5-b]pyridin-5-yl)-2-methylamino-propionamide hydrochloride] | – | IC50 (XIAP BIR3 domain): 100000 to 300000 nM; IC50 (cIAP-1 BIR3 domain; [2]): 10000 to 100000 nM |
| CCCN1Cc2nc(NC(=O)[C@H](C)NC)ccc2N(c2ccccc2)C1=O [Example 28, (S)-2-Methylamino-N-(2-oxo-1-phenyl-3-propyl-1,2,3,4-tetrahydro-pyrido[3,2-d]pyrimidin-6-yl)-propionamide hydrochloride] | 10 to 1000 | – |
| CN[C@@H](C)C(=O)Nc1ccc2c(n1)CNC(=O)N2c1ccc(Cl)cc1 [Example 22, (S)—N-[1-(4-Chloro-phenyl)-2-oxo-1,2,3,4-tetrahydro-pyrido[3,2-d]pyrimidin-6-yl]-2-methylamino-propionamide hydrochloride] | 10 to 1000 | – |
| CN[C@@H](C)C(=O)Nc1ccc2c(n1)CN(Cc1cscn1)C(=O)N2c1ccc(Cl)cc1 [Example 40, (S)—N-[1-(4-Chloro-phenyl)-2-oxo-3-thiazol-4-ylmethyl-1,2,3,4-tetrahydro-pyrido[3,2-d]pyrimidin-6-yl]-2-methylamino-propionamide hydrochloride] | – | IC50 (cIAP-1 BIR3 domain): 10 to 1000 nM |
| CN[C@@H](C)C(=O)Nc1ccc2c(n1)n(C)c(=O)n2C [Example 17, (S)—N-(1,3-Dimethyl-2-oxo-2,3-dihydro-1H-imidazo[4,5-b]pyridin-5-yl)-2-methylamino-propionamide hydrochloride] | – | IC50 (cIAP-1 BIR3 domain; [2]): 10000 to 100000 nM |
| CN[C@@H](C)C(=O)Nc1ccc2c(n1)CN(CCc1ccccc1)C(=O)N2c1ccc(Cl)cc1 [Example 41, (S)—N-[1-(4-Chloro-phenyl)-2-oxo-3-phenethyl-1,2,3,4-tetrahydro-pyrido[3,2-d]pyrimidin-6-yl]-2-methylamino-propionamide hydrochloride] | 10 to 1000 | – |
| CN[C@@H](C)C(=O)Nc1ccc2c(n1)CNC(=O)N2c1ccccc1 [Example 19, (S)-2-Methylamino-N-(2-oxo-1-phenyl-1,2,3,4-tetrahydro-pyrido[3,2-d]pyrimidin-6-yl)-propionamide hydrochloride] | – | IC50 (cIAP-1 BIR3 domain; [2]): 10 to 1000 nM |
